Data from PMC6466937, “Evaluation of In Vitro Antioxidant and Antidiabetic Activities of Aristolochia longa Extracts” (Evidence-based Complementary and Alternative Medicine : eCAM, 2019).

Molecular target: T1, β-Galactosidase from Aspergillus oryzae (Aspergillus oryzae, UniProt Q2UCU3)
T1 construct: gene lacA; commercial secreted enzyme (Sigma-Aldrich), no catalogue number
T1 sequence (Q2UCU3 19-1005): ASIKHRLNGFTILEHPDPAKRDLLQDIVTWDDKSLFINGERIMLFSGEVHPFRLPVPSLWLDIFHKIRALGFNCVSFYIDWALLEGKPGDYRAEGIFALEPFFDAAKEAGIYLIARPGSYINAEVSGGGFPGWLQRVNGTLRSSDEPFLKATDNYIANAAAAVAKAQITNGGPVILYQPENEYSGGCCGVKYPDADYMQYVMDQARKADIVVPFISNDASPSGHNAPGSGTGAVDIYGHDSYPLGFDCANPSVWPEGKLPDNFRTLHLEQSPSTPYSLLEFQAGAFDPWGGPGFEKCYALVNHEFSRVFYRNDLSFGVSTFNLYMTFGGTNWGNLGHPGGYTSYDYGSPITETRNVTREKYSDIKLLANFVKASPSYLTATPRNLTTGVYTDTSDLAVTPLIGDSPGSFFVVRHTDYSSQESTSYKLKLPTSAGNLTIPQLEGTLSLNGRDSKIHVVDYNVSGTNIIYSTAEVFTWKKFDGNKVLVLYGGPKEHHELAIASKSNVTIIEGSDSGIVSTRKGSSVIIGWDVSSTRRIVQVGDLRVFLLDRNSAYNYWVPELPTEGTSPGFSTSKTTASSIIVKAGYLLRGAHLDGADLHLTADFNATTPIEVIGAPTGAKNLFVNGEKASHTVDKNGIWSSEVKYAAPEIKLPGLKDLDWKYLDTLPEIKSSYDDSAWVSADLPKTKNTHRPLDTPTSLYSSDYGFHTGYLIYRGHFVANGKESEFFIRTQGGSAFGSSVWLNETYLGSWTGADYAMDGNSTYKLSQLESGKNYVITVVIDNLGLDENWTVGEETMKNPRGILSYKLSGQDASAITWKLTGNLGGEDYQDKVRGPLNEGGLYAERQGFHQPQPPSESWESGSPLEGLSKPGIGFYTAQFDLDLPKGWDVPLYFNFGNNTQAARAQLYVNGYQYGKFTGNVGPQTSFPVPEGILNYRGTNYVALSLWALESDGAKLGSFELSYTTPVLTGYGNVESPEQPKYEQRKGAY
Assay: 2-nitrophenyl beta-D-galactopyranoside hydrolysis, absorbance […] nm
Type: biochemical
Settings: read-out: β-Galactosidase inhibition / IC50 (mg/mL) (converted)

O=c1c(O)c(-c2ccc(O)c(O)c2)oc2cc(O)cc(O)c12 [Quercetin]
IC50: 817 µM
